Measurements published in ChEMBL document CHEMBL3045788, “Effect of abamectin on root-knot nematodes and tomato yield” (Pest Manag Sci, 2012).
Calls of active or inactive are those of the source. No cut-off for these calls is given here.

What was measured:
[1] = test system: Meloidogyne incognita; experiment: Nematicidal activity against second-stage juvenile Meloidogyne incognita (root-knot nematode) infested tomato plant under greenhouse condition assessed as fresh root weight at 7.5 L/hectare measured after 30 days; type: functional
[2] = test system: Meloidogyne incognita; experiment: Nematicidal activity against second-stage juvenile Meloidogyne incognita (root-knot nematode) infested tomato field assessed as extra-large fruit yield at 10 L/hectare; type: functional
[3] = test system: Meloidogyne incognita; experiment: Nematicidal activity against second-stage juvenile Meloidogyne incognita (root-knot nematode) infested tomato field assessed as plant height at 5 L/hectare measured after 30 days; type: functional
[4] = test system: Meloidogyne incognita; experiment: Nematicidal activity against second-stage juvenile Meloidogyne incognita (root-knot nematode) infested tomato field assessed as medium fruit yield at 5 L/hectare; type: functional
[5] = test system: Meloidogyne incognita; experiment: Nematicidal activity against second-stage juvenile Meloidogyne incognita (root-knot nematode) infested tomato field assessed as large fruit yield at 10 L/hectare; type: functional
[6] = test system: Meloidogyne incognita; experiment: Nematicidal activity against second-stage juvenile Meloidogyne incognita (root-knot nematode) assessed as mortality after 48 hr; type: functional
[7] = test system: Meloidogyne incognita; experiment: Nematicidal activity against second-stage juvenile Meloidogyne incognita (root-knot nematode) infested tomato field assessed as plant vigour at 10 L/hectare measured after 30 days; type: functional
[8] = test system: Meloidogyne incognita; experiment: Nematicidal activity against second-stage juvenile Meloidogyne incognita (root-knot nematode) infested tomato plant under greenhouse condition assessed as reduction in root galling index at 5 L/hectare measured after 30 days; type: functional, organism-based
[9] = test system: Meloidogyne incognita; experiment: Nematicidal activity against second-stage juvenile Meloidogyne incognita (root-knot nematode) infested tomato field assessed as large fruit yield at 7.5 L/hectare; type: functional
[10] = test system: Meloidogyne incognita; experiment: Nematicidal activity against second-stage juvenile Meloidogyne incognita (root-knot nematode) infested tomato field assessed as medium fruit yield at 10 L/hectare; type: functional
[11] = test system: Meloidogyne incognita; experiment: Nematicidal activity against second-stage juvenile Meloidogyne incognita (root-knot nematode) infested tomato plant under greenhouse condition assessed as plant height at 7.5 L/hectare measured after 30 days; type: functional
[12] = test system: Meloidogyne incognita; experiment: Nematicidal activity against second-stage juvenile Meloidogyne incognita (root-knot nematode) infested tomato field assessed as plant height at 7.5 L/hectare measured after 30 days; type: functional
[13] = test system: Meloidogyne incognita; experiment: Nematicidal activity against second-stage juvenile Meloidogyne incognita (root-knot nematode) infested tomato plant under greenhouse condition assessed as plant vigour at 10 L/hectare measured after 30 days; type: functional
[14] = test system: Meloidogyne incognita; experiment: Nematicidal activity against second-stage juvenile Meloidogyne incognita (root-knot nematode) infested tomato field assessed as reduction in number of nematodes in soil at 10 L/hectare measured after 20 days; type: functional, organism-based
[15] = test system: Meloidogyne incognita; experiment: Nematicidal activity against second-stage juvenile Meloidogyne incognita (root-knot nematode) infested tomato field assessed as marketable yield at 5 L/hectare; type: functional
[16] = test system: Meloidogyne incognita; experiment: Nematicidal activity against second-stage juvenile Meloidogyne incognita (root-knot nematode) infested tomato field assessed as reduction in number of nematodes in soil at 7.5 L/hectare measured after 60 days; type: functional, organism-based
[17] = test system: Meloidogyne incognita; experiment: Nematicidal activity against second-stage juvenile Meloidogyne incognita (root-knot nematode) infested tomato field assessed as medium fruit yield at 7.5 L/hectare; type: functional
[18] = test system: Meloidogyne incognita; experiment: Nematicidal activity against second-stage juvenile Meloidogyne incognita (root-knot nematode) infested tomato field assessed as reduction in number of nematodes in soil at 5 L/hectare measured after 60 days; type: functional, organism-based
[19] = test system: Meloidogyne incognita; experiment: Nematicidal activity against second-stage juvenile Meloidogyne incognita (root-knot nematode) infested tomato field assessed as plant height at 5 L/hectare measured after 50 days; type: functional
[20] = test system: Meloidogyne incognita; experiment: Nematicidal activity against second-stage juvenile Meloidogyne incognita (root-knot nematode) infested tomato plant under greenhouse condition assessed as plant height at 10 L/hectare measured after 30 days; type: functional
[21] = test system: Meloidogyne incognita; experiment: Nematicidal activity against second-stage juvenile Meloidogyne incognita (root-knot nematode) infested tomato field assessed as plant height at 10 L/hectare measured after 50 days; type: functional
[22] = test system: Meloidogyne incognita; experiment: Nematicidal activity against second-stage juvenile Meloidogyne incognita (root-knot nematode) infested tomato plant under greenhouse condition assessed as reduction in root galling index at 10 L/hectare measured after 30 days; type: functional, organism-based
[23] = test system: Meloidogyne incognita; experiment: Nematicidal activity against second-stage juvenile Meloidogyne incognita (root-knot nematode) infested tomato field assessed as plant height at 10 L/hectare measured after 30 days; type: functional
[24] = test system: Meloidogyne incognita; experiment: Nematicidal activity against second-stage juvenile Meloidogyne incognita (root-knot nematode) infested tomato plant under greenhouse condition assessed as fresh root weight at 10 L/hectare measured after 30 days; type: functional
[25] = test system: Meloidogyne incognita; experiment: Nematicidal activity against Meloidogyne incognita (root-knot nematode) assessed as per seed; type: functional, organism-based
[26] = test system: Meloidogyne incognita; experiment: Nematicidal activity against second-stage juvenile Meloidogyne incognita (root-knot nematode) infested tomato field assessed as reduction in number of nematodes in soil at 10 L/hectare measured after 40 days; type: functional, organism-based
[27] = test system: Meloidogyne incognita; experiment: Nematicidal activity against second-stage juvenile Meloidogyne incognita (root-knot nematode) infested tomato field assessed as large fruit yield at 5 L/hectare; type: functional
[28] = test system: Meloidogyne incognita; experiment: Nematicidal activity against second-stage juvenile Meloidogyne incognita (root-knot nematode) infested tomato field assessed as plant height at 7.5 L/hectare measured after 50 days; type: functional
[29] = test system: Meloidogyne incognita; experiment: Nematicidal activity against second-stage juvenile Meloidogyne incognita (root-knot nematode) infested tomato field assessed as plant vigour at 7.5 L/hectare measured after 30 days; type: functional
[30] = test system: Meloidogyne incognita; experiment: Nematicidal activity against second-stage juvenile Meloidogyne incognita (root-knot nematode) infested tomato field assessed as reduction in number of nematodes in soil at 7.5 L/hectare measured after 20 days; type: functional, organism-based
[31] = test system: Meloidogyne incognita; experiment: Nematicidal activity against second-stage juvenile Meloidogyne incognita (root-knot nematode) infested tomato plant under greenhouse condition assessed as reduction in root galling index at 7.5 L/hectare measured after 30 days; type: functional, organism-based
[32] = test system: Meloidogyne incognita; experiment: Nematicidal activity against second-stage juvenile Meloidogyne incognita (root-knot nematode) infested tomato field assessed as reduction in number of nematodes in soil at 7.5 L/hectare measured after 40 days; type: functional, organism-based
[33] = test system: Meloidogyne incognita; experiment: Nematicidal activity against second-stage juvenile Meloidogyne incognita (root-knot nematode) infested tomato plant under greenhouse condition assessed as plant vigour at 5 L/hectare measured after 30 days; type: functional
[34] = test system: Meloidogyne incognita; experiment: Nematicidal activity against second-stage juvenile Meloidogyne incognita (root-knot nematode) infested tomato field assessed as reduction in root galling index at 10 L/hectare measured after 30 days; type: functional, organism-based
[35] = test system: Meloidogyne incognita; experiment: Nematicidal activity against second-stage juvenile Meloidogyne incognita (root-knot nematode) infested tomato field assessed as marketable yield at 7.5 L/hectare; type: functional
[36] = test system: Meloidogyne incognita; experiment: Nematicidal activity against second-stage juvenile Meloidogyne incognita (root-knot nematode) infested tomato field assessed as marketable yield at 10 L/hectare; type: functional
[37] = test system: Meloidogyne incognita; experiment: Nematicidal activity against second-stage juvenile Meloidogyne incognita (root-knot nematode) infested tomato field assessed as reduction in root galling index at 7.5 L/hectare measured after 30 days; type: functional, organism-based
[38] = test system: Meloidogyne incognita; experiment: Nematicidal activity against second-stage juvenile Meloidogyne incognita (root-knot nematode) infested tomato plant under greenhouse condition assessed as plant vigour at 7.5 L/hectare measured after 30 days; type: functional
[39] = test system: Meloidogyne incognita; experiment: Nematicidal activity against second-stage juvenile Meloidogyne incognita (root-knot nematode) infested tomato plant under greenhouse condition assessed as fresh root weight at 5 L/hectare measured after 30 days; type: functional
[40] = test system: Meloidogyne incognita; experiment: Nematicidal activity against second-stage juvenile Meloidogyne incognita (root-knot nematode) infested tomato field assessed as reduction in root galling index at 5 L/hectare measured after 30 days; type: functional, organism-based
[41] = test system: Meloidogyne incognita; experiment: Nematicidal activity against second-stage juvenile Meloidogyne incognita (root-knot nematode) infested tomato plant under greenhouse condition assessed as plant height at 5 L/hectare measured after 30 days; type: functional
[42] = test system: Meloidogyne incognita; experiment: Nematicidal activity against second-stage juvenile Meloidogyne incognita (root-knot nematode) infested tomato field assessed as plant vigour at 5 L/hectare measured after 30 days; type: functional
[43] = test system: Meloidogyne incognita; experiment: Nematicidal activity against second-stage juvenile Meloidogyne incognita (root-knot nematode) infested tomato field assessed as reduction in number of nematodes in soil at 5 L/hectare measured after 40 days; type: functional, organism-based
[44] = test system: Meloidogyne incognita; experiment: Nematicidal activity against second-stage juvenile Meloidogyne incognita (root-knot nematode) infested tomato field assessed as reduction in number of nematodes in soil at 5 L/hectare measured after 20 days; type: functional, organism-based
[45] = test system: Meloidogyne incognita; experiment: Nematicidal activity against second-stage juvenile Meloidogyne incognita (root-knot nematode) infested tomato field assessed as extra-large fruit yield at 5 L/hectare; type: functional
[46] = test system: Meloidogyne incognita; experiment: Nematicidal activity against second-stage juvenile Meloidogyne incognita (root-knot nematode) infested tomato field assessed as extra-large fruit yield at 7.5 L/hectare; type: functional
[47] = test system: Meloidogyne incognita; experiment: Nematicidal activity against second-stage juvenile Meloidogyne incognita (root-knot nematode) infested tomato field assessed as reduction in number of nematodes in soil at 10 L/hectare measured after 60 days; type: functional, organism-based

## CC[C@H](C)[C@H]1O[C@]2(C=C[C@@H]1C)C[C@@H]1C[C@@H](C/C=C(\C)[C@@H](O[C@H]3C[C@H](OC)[C@@H](O[C@H]4C[C@H](OC)[C@@H](O)[C@H](C)O4)[C@H](C)O3)[C@@H](C)/C=C/C=C3\CO[C@@H]4[C@H](O)C(C)=C[C@@H](C(=O)O1)[C@]34O)O2.CO[C@H]1C[C@H](O[C@H]2[C@H](C)O[C@@H](O[C@@H]3/C(C)=C/C[C@@H]4C[C@@H](C[C@]5(C=C[C@H](C)[C@@H](C(C)C)O5)O4)OC(=O)[C@@H]4C=C(C)[C@@H](O)[C@H]5OC/C(=C\C=C\[C@@H]3C)[C@]54O)C[C@@H]2OC)O[C@@H](C)[C@@H]1O [ABAMECTIN]
[1]
  Activity: 1.09 g
[2]
  Activity: 7.3%
[3]
  Activity: 32.4 cm
[4]
  Activity: 36.7%
[5]
  Activity: 20.6%
[6]
  LC50: 7.06 mgAi/L
  LC90: 21.81 mgAi/L
[7]
  Activity: 92%
[8]
  Activity: Active
[9]
  Activity: 18.1%
[10]
  Activity: 41.3%
[11]
  Activity: 37.5 cm
[12]
  Activity: 35.9 cm
[13]
  Activity: 92%
[14]
  Activity: Active
[15]
  Activity: 59.4%
[16]
  Activity: Active
[17]
  Activity: 39.5%
[18]
  Activity: Active
[19]
  Activity: 94.3 cm
[20]
  Activity: 39.2 cm
[21]
  Activity: 102.8 cm
[22]
  Activity: Active
[23]
  Activity: 39.1 cm
[24]
  Activity: 1.14 g
[25]
  EC50: 0.016 mgAi
  EC80: 0.28 mgAi
[26]
  Activity: Active
[27]
  Activity: 17.4%
[28]
  Activity: 98.6 cm
[29]
  Activity: 87%
[30]
  Activity: Active
[31]
  Activity: Active
[32]
  Activity: Active
[33]
  Activity: 85%
[34]
  Activity: Active
[35]
  Activity: 63.4%
[36]
  Activity: 69.2%
[37]
  Activity: Active
[38]
  Activity: 87%
[39]
  Activity: 0.98 g
[40]
  Activity: Active
[41]
  Activity: 35.4 cm
[42]
  Activity: 85%
[43]
  Activity: Active
[44]
  Activity: Active
[45]
  Activity: 5.3%
[46]
  Activity: 5.8%
[47]
  Activity: Active
